Laboratory results taken from US8039496B2, “Therapeutic compounds” (Allergan, Inc., priority 2007, dated 2011).
Where two headings read alike, the source gives them in different places.

Assays:
[1] = molecular target: T1, hEP3 (Homo sapiens, UniProt P43115); experiment: Other receptors: hEP3 / hEP3A; format: cell-based
T1 sequence (P43115 1-390): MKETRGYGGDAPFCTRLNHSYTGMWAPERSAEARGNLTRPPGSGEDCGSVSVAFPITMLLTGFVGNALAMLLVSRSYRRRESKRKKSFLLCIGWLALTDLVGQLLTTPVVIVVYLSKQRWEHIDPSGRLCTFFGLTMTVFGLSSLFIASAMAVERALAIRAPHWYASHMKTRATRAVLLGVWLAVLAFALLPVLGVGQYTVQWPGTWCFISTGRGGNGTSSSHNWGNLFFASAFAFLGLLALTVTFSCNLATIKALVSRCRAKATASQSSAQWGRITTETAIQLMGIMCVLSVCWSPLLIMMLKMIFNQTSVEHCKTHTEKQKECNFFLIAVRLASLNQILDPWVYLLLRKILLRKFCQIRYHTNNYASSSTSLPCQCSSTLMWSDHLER
Text: (§1) U.S. patent application Ser. No. 11/553,143, filed on Oct. 26, 2006, describes the methods used to obtain the in vitro data in the table below.

[2] = molecular target: T2, hEP2 (Homo sapiens, UniProt P43116); experiment: hEP2 flipr functional assay; format: cell-based
Text: as §1

[3] = molecular target: T2, hEP2; experiment: hEP2 cAMP functional assay; format: cell-based
Text: as §1

[4] = molecular target: T3, hEP4 (Homo sapiens, UniProt P35408); experiment: hEP4 flipr functional assay; format: cell-based
Text: as §1

[5] = molecular target: T3, hEP4; experiment: hEP4 binding (Ki)
Text: as §1

[6] = molecular target: T4, hDP (Homo sapiens, UniProt Q13258); experiment: Other receptors: hDP; format: cell-based; conditions: the 3rd table; read-out: Other Receptors (ED50 in nM) hDP
T4 sequence (Q13258 1-359): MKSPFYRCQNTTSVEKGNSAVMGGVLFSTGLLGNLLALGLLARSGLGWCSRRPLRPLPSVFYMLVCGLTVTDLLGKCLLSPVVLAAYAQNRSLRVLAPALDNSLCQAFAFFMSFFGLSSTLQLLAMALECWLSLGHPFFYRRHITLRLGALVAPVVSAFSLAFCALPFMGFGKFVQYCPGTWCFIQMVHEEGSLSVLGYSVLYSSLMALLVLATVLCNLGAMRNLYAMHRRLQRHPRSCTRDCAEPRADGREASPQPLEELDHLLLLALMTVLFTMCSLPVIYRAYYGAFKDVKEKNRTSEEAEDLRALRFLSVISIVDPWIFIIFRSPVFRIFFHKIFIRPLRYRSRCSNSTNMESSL
Text: as §1

[7] = molecular target: T2, hEP2; experiment: hEP2 binding (Ki)
Text: as §1

[8] = system: normotensive dogs; experiment: Ocular surface hyperemia in normotensive dogs; format: in vivo; set-up: scale not given here; conditions: once daily for 5 days
Description: (§2) U.S. Pat. No. 7,091,231 describes the methods used for these in vivo tests. 5-{3-[1R,2S,3R,5R)-5-Chloro-2-(3,5-dichloro-phenoxymethyl)-3-hydroxy-cyclopentyl]-propyl}-thiophene-2-carboxylic acid was tested at multiple concentrations in normotensive dogs, dosing once daily for 5 days. At 0.1%, the maximum intraocular pressure (IOP) decrease from baseline was 7.5 mmHg (48%) at 30 h; the maximum ocular surface hyperemia (OSH) score was 2.75 at 26 h. At 0.01%, the maximum IOP decrease from baseline was 7.5 mmHg (43%) at 76 h; the maximum OSH score was 2.0 at 26 h. At 0.005%, the maximum IOP decrease from baseline was 6.6 mmHg (35%) at 78 h; the maximum OSH score was 1.75 at 74 h. This compound was also tested in laser-induced hypertensive monkeys, using one single day dose. At 0.01%, the maximum IOP decrease from baseline was 20.2 mmHg (53%) at 24 h.

[9] = system: normotensive dogs; experiment: Intraocular pressure in normotensive dogs; format: in vivo; conditions: Canis lupus familiaris, topical, 120 h, once daily for 5 days, read-out: maximum IOP decrease from baseline (percent)
Description: as §2

[10] = system: laser-induced hypertensive monkeys; experiment: Intraocular pressure in laser-induced hypertensive monkeys; format: in vivo; conditions: one single day dose
Description: as §2

[11] = the 3rd table, read-out: Other Receptors (ED50 in nM) hEP3A
[12] = the 3rd table, read-out: EP2 data flipr EC50
[13] = the 3rd table, read-out: EP2 data cAMP EC50
[14] = the 3rd table, read-out: EP4 data flipr EC50
[15] = the 3rd table, read-out: EP4 data KI
[16] = the 3rd table, read-out: EP2 data Ki
[17] = the 2nd table, read-out: hEP2 flipr EC50
[18] = the 2nd table, read-out: hEP2 cAMP EC50
[19] = the 2nd table, read-out: hEP4 flipr EC50
[20] = the 2nd table, read-out: hEP4 Ki
[21] = the 2nd table, read-out: hEP2 Ki

T3 sequence (P35408 whole entry): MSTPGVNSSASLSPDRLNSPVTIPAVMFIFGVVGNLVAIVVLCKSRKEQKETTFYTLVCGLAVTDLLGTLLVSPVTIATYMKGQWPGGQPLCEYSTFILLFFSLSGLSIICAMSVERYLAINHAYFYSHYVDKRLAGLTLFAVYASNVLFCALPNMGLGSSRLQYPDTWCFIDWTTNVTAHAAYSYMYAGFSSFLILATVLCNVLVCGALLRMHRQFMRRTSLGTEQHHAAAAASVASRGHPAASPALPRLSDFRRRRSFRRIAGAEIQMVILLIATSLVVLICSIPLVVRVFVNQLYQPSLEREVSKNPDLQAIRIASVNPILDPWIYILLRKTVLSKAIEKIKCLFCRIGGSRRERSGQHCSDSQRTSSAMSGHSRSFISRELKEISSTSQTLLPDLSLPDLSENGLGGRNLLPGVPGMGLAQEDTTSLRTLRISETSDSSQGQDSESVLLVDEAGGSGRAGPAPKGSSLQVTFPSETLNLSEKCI
T2 sequence (P43116 whole entry): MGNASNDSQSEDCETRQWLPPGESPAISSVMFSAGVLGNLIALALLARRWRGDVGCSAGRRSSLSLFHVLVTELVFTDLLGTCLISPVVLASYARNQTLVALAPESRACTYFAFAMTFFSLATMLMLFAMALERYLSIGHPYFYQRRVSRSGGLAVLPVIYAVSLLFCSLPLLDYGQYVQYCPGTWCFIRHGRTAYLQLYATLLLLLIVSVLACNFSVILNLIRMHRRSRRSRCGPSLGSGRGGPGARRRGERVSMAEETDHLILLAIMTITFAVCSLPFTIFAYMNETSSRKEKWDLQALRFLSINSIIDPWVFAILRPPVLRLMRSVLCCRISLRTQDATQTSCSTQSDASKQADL

## O=C(O)c1ccc(CCC[C@@H]2[C@@H](COc3cc(F)cc(F)c3)[C@H](O)C[C@H]2Cl)s1 [5-(3-((1R,2S,3R,5R)-5-chloro-2-((3,5-difluorophenoxy)methyl)-3-hydroxycyclopentyl)propyl)thiophene-2-carboxylic acid]
[1]; [11]
  EC50: 4140 nM
[2]; [12]
  EC50: 216 nM
[3]; [13]
  EC50: 0.3 nM
[4]; [14]
  EC50: 5290 nM
[5]; [15]
  Ki: 1280 nM
[6]
  EC50: 12100 nM
[7]; [16]
  Ki: 3 nM

## O=C(O)c1ccc(CCC[C@@H]2[C@@H](COc3cc(F)cc(C(F)(F)F)c3)[C@H](O)C[C@H]2Cl)s1 [5-(3-((1R,2S,3R,5R)-5-chloro-2-((3-fluoro-5-(trifluoromethyl)phenoxy)methyl)-3-hydroxycyclopentyl)propyl)thiophene-2-carboxylic acid]
[1]; [11]
  EC50: 6820 nM
[2]; [12]
  EC50: 1150 nM
[3]; [13]
  EC50: 0.2 nM
[4]; [14]
  EC50: 12300 nM
[5]; [15]
  Ki: 354 nM
[7]; [16]
  Ki: 2.4 nM

## Cc1cc(OC[C@@H]2[C@@H](CCCc3ccc(C(=O)O)s3)[C@H](Cl)C[C@H]2O)cc(C)c1Cl [5-(3-((1R,2S,3R,5R)-5-chloro-2-((4-chloro-3,5-dimethylphenoxy)methyl)-3-hydroxycyclopentyl)propyl)thiophene-2-carboxylic acid]
[2]; [12]
  EC50: 1490 nM
[3]; [13]
  EC50: 0.2 nM
[4]; [14]
  EC50: > 10000 nM
[5]; [15]
  Ki: 170 nM
[6]
  EC50: 7190 nM
[7]; [16]
  Ki: 0.7 nM

## O=C(O)c1ccc(CCC[C@@H]2[C@@H](COc3ccc(Cl)c4ccccc34)[C@H](O)C[C@H]2Cl)s1 [5-(3-((1R,2S,3R,5R)-5-chloro-2-((4-chloronaphthalen-1-yloxy)methyl)-3-hydroxycyclopentyl)propyl)thiophene-2-carboxylic acid]
[2]; [12]
  EC50: 3530 nM
[3]; [13]
  EC50: 2.5 nM
[4]; [14]
  EC50: 15000 nM
[5]; [15]
  Ki: 1930 nM
[6]
  EC50: 13500 nM
[7]; [16]
  Ki: 10 nM

## O=C(O)CCC/C=C\C[C@@H]1[C@@H](COc2cc(Cl)cc(Cl)c2)[C@H](O)C[C@H]1Cl [(Z)-7-[(1R,2S,3R,5R)-5-Chloro-2-(3,5-dichloro-phenoxymethyl)-3-hydroxy-cyclopentyl]-hept-5-enoic acid]
[8]; 0.05%
  maximum ocular surface hyperemia (OSH) score: 0.6
[8]; 0.1%
  maximum ocular surface hyperemia (OSH) score: 1.3

## O=C(O)CCC/C=C\C[C@@H]1[C@@H](COc2cc(Cl)cc(CO)c2)[C@H](O)C[C@H]1Cl [(Z)-7-[(1R,2S,3R,5R)-5-Chloro-2-(3-chloro-5-hydroxymethyl-phenoxymethyl)-3-hydroxy-cyclopentyl]-hept-5-enoic acid]
[9]
  inhibition in vivo at 0.1 %: 13.5%
[8]; 0.1%
  maximum ocular surface hyperemia (OSH) score: 0.9
[10]; 0.1%
  maximum IOP decrease from baseline: 8 mmHg
  maximum IOP decrease from baseline (percent): 21%

## O=C(O)c1ccc(CCC[C@@H]2[C@@H](COc3cc(Cl)cc(Cl)c3)[C@H](O)C[C@H]2Cl)s1 [Example 4, 5-{3-[(1R,2S,3R,5R)-5-Chloro-2-(3,5-dichloro-phenoxymethyl)-3-hydroxy-cyclopentyl]-propyl}-thiophene-2-carboxylic acid]
[9]; 0.005%
  inhibition in vivo at 0.005 %: 35%
[9]
  inhibition in vivo at 0.01 %: 43%
  inhibition in vivo at 0.1 %: 48%
[8]; 0.005%
  maximum ocular surface hyperemia (OSH) score: 1.75
[8]; 0.01%
  maximum ocular surface hyperemia (OSH) score: 2.0
[8]; 0.1%
  maximum ocular surface hyperemia (OSH) score: 2.75
[10]; 0.01%
  maximum IOP decrease from baseline: 20.2 mmHg
  maximum IOP decrease from baseline (percent): 53%

## O=C(O)c1ccc(CCC[C@@H]2[C@@H](COc3cc(Cl)cc(CO)c3)[C@H](O)C[C@H]2Cl)s1 [Example 5, 5-{3-[(1R,2S,3R,5R)-5-Chloro-2-(3-chloro-5-hydroxymethyl-phenoxymethyl)-3-hydroxy-cyclopentyl]-propyl}-thiophene-2-carboxylic acid]
[9]
  inhibition in vivo at 0.1 %: 34%
[8]; 0.1%
  maximum ocular surface hyperemia (OSH) score: 1.9

## Cc1cc(C)cc(OC[C@@H]2[C@@H](CCCc3ccc(C(=O)O)s3)[C@H](Cl)C[C@H]2O)c1 [Example 6, 5-{3-[(1R,2S,3R,5R)-5-Chloro-2-(3,5-dimethyl-phenoxymethyl)-3-hydroxy-cyclopentyl]-propyl}-thiophene-2-carboxylic acid]
[9]
  inhibition in vivo at 0.01 %: 33%
[8]; 0.01%
  maximum ocular surface hyperemia (OSH) score: 1.9

## N#C[C@@H]1C[C@@H](O)[C@H](COc2cc(Cl)cc(Cl)c2)[C@H]1CCCc1ccc(C(=O)O)s1 [Example 9, 5-{3-[(1S,2S,3R,5R)-5-Cyano-2-(3,5-dichloro-phenoxymethyl)-3-hydroxy-cyclopentyl]-propyl}-thiophene-2-carboxylic acid]
[9]
  inhibition in vivo at 0.01 %: 17%
[8]; 0.01%
  maximum ocular surface hyperemia (OSH) score: 1.2

## CC(C)OC(=O)CCC/C=C\C[C@@H]1[C@@H](COc2cc(Cl)cc(CO)c2)[C@H](O)C[C@H]1Cl [Example 12, (Z)-Isopropyl 7-((1R,2S,3R,5R)-5-chloro-2-((3-chloro-5-(hydroxymethyl)phenoxy)methyl)-3-hydroxycyclopentyl)hept-5-enoate]
[9]
  inhibition in vivo at 0.1 %: 33%
[8]; 0.1%
  maximum ocular surface hyperemia (OSH) score: 0.8
[10]; 0.1%
  maximum IOP decrease from baseline: 7.4 mmHg
  maximum IOP decrease from baseline (percent): 21%

## CC(=O)OCc1cc(Cl)cc(OC[C@@H]2[C@@H](C/C=C\CCCC(=O)OC(C)C)[C@H](Cl)C[C@H]2O)c1 [Example 13, (Z)-Isopropyl 7-((1R,2S,3R,5R)-2-((3-(acetoxymethyl)-5-chlorophenoxy)methyl)-5-chloro-3-hydroxycyclopentyl)hept-5-enoate]
[9]
  inhibition in vivo at 0.1 %: 20%
[8]; 0.1%
  maximum ocular surface hyperemia (OSH) score: 0.7
[10]; 0.1%
  maximum IOP decrease from baseline: 8.2 mmHg
  maximum IOP decrease from baseline (percent): 21%

## CC(C)OC(=O)c1ccc(CCC[C@@H]2[C@@H](COc3cc(Cl)cc(CO)c3)[C@H](O)C[C@H]2Cl)s1 [Example 14, Isopropyl 5-{3-[(1R,2S,3R,5R)-5-Chloro-2-(3-chloro-5-hydroxymethyl-phenoxymethyl)-3-hydroxy-cyclopentyl]-propyl}-thiophene-2-carboxylate]
[9]
  inhibition in vivo at 0.1 %: 36%
[8]; 0.1%
  maximum ocular surface hyperemia (OSH) score: 1.9

## Cc1cc(C)cc(OC[C@@H]2[C@@H](CCCc3ccc(C(=O)O)s3)[C@H](Cl)C[C@H]2O)c1 [drawing 37, 5-{3-[(1R,2S,3R,5R)-5-Chloro-2-(3,5-dimethyl-phenoxymethyl)-3-hydroxy-cyclopentyl]-propyl}-thiophene-2-carboxylic acid]
[2]; [17]
  EC50: 31 nM
[3]; [18]
  EC50: 0.2 nM
[4]; [19]
  EC50: 2940 nM
[5]; [20]
  Ki: 158 nM
[7]; [21]
  Ki: 2 nM

## N#C[C@@H]1C[C@@H](O)[C@H](COc2cc(Cl)cc(Cl)c2)[C@H]1CCCc1ccc(C(=O)O)s1 [drawing 40, 5-{3-[(1S,2S,3R,5R)-5-Cyano-2-(3,5-dichloro-phenoxymethyl)-3-hydroxy-cyclopentyl]-propyl}-thiophene-2-carboxylic acid]
[2]; [17]
  EC50: 15 nM
[3]; [18]
  EC50: 0.2 nM
[4]; [19]
  EC50: > 10000 nM
[5]; [20]
  Ki: 149 nM
[7]; [21]
  Ki: 3 nM

## O=C(O)CCC/C=C\C[C@@H]1[C@@H](COc2cc(Cl)cc(Cl)c2)[C@H](O)C[C@H]1Cl [drawing 43, (Z)-7-[(1R,2S,3R,5R)-5-Chloro-2-(3,5-dichloro-phenoxymethyl)-3-hydroxy-cyclopentyl]-hept-5-enoic acid]
[1]; the 2nd table, read-out: Other Receptors hEP3
  EC50: 1260 nM
